{"source": "patent US4585755A", "about": "“Cyclic and bridged cyclic somatostatin analogs useful as local anti-inflammatory agents” (Merck & Co., Inc., priority 1985, dated 1986)", "key": {"[1]": {"tested_on": "growth hormone, insulin and glucogen secretion", "test": "Potency relative to somatostatin (SRIF), based on inhibition of hormone secretion", "details": "somatostatin (SRIF) potency assigned a value of 1, based upon inhibition of growth hormone", "experimental": "Following the same procedure as described above for Assay 1, additional compounds were tested for local; i.e., topical, anti-inflammatory activity. […] In Table III, the potency of each compound tested relative to that of somatostatin is also shown, the somatostatin (SRIF) potency being assigned a value of 1 and based upon its inhibition of growth hormone, insulin and glucogen secretion."}, "[2]": {"tested_on": "cellular proliferation (granuloma)", "test": "Assay 1: pellet granuloma assay, compound applied locally to implanted pellets", "assay_type": "in vivo, rats (Charles River-CD)", "details": "for Body Wt. Change / Net weight of Pellets: local on pellet, male rats, 7 days; for Net weight of Pellets: ± S.E. of mean, control 39 ± 2.7", "experimental": "The assay method employed to test the Formula I, II and III compounds as local anti-inflammatory agents is a modification of the method described by S. L. Steelman, et al. [Steroids, 1, 163 (1963)] as follows:\n(§1) Male rats (Charles River-CD) of about 150-160 grams in weight were subcutaneously implanted in the abdominal area with two pellets each. Five animals were used per group. The pellets used were preweighed and all used in a given assay were ±1 mg from one another. The compounds were dissolved in absolute ethanol and the indicated dose applied to each pellet in 0.2 ml. The alcohol was removed in vacuo overnight. Just prior to implantation, each pellet was moistened with 0.2 ml of 0.9% saline containing 1 mg each of penicillin and streptomycin. After seven days, the pellets were dissected out together with adhering granulomatous tissue. After drying in a vacuum oven overnight at 60°-65° C., the pellets were weighed. The difference in weight between the original pellet weight and the implanted pellet weight was used as a measure of cellular proliferation (granuloma). The lower the net weight, the more anti-inflammatory activity.\nThe results obtained following the Assay Method described above are shown below in Table I wherein hydrocortisone was used as a positive control."}, "[3]": {"tested_on": "cellular proliferation (granuloma)", "test": "Assay 2: pellet granuloma assay, compounds administered subcutaneously as saline injections", "assay_type": "in vivo, rats (Charles River-CD)", "details": "for Avg. Granuloma wt. / Avg. Adrenal wt. / Avg. Thymus wt. / Avg. body wt change: rats, 7 days, ± S.E. of mean; for Avg. Granuloma wt.: control 28 ± 3; for Avg. Adrenal wt.: control 44 ± 1; for Avg. Thymus wt.: control 552 ± 45; for Avg. body wt change: control +35 ± 2", "experimental": "as §1\nFollowing the procedure described above for Assay 1, additional tests were conducted except that the compounds were administered subcutaneously as saline injections. The tests were carried out on six animals per group and the results obtained are shown below in Table II."}, "[4]": {"details": "daily dose 200 mcg subcutaneous"}}, "note": "Residues, ends and D or L forms follow the SMILES beside them."}
{"compound": "CC(C)[C@@H]1NC(=O)[C@H](CCCCN)NC(=O)[C@@H](Cc2c[nH]c3ccccc23)NC(=O)[C@H](Cc2ccc(O)cc2)NC(=O)[C@H](C)N(C)C(=O)[C@H](Cc2c[nH]c3ccccc23)NC1=O", "note": "[9/I, Cyclo-(N-Me-Ala-Tyr-D-Trp-Lys-Val-Trp)] (HELM PEPTIDE1{K.V.W.[meA].Y.[dW]}$PEPTIDE1,PEPTIDE1,1:R1-6:R2$$$V2.0)", "values": [{"measurement": "Potency Relative to Samatostatin (SRIF)", "setting": "[1]", "result": "20-35"}]}
{"compound": "CC(C)[C@@H]1NC(=O)[C@H](CCCCN)NC(=O)[C@H](Cc2c[nH]c3ccccc23)NC(=O)[C@H](Cc2ccc(O)cc2)NC(=O)[C@H](C)N(C)C(=O)[C@H](Cc2ccccc2)NC1=O", "note": "[10/I, Cyclo-(N-Me-Ala-Tyr-L-Trp-Lys-Val-Phe)]", "values": [{"measurement": "Potency Relative to Samatostatin (SRIF)", "setting": "[1]", "result": 50}]}
{"compound": "C[C@@H]1NC(=O)[C@H](CO)NC(=O)[C@H](CCCCN)NC(=O)[C@@H](Cc2c[nH]c3ccccc23)NC(=O)[C@H](Cc2c[nH]cn2)NC(=O)[C@H](Cc2ccccc2)N(C)C1=O", "note": "[11/I, Cyclo-(Ser-Ala-N-Me-Phe-His-D-Trp-Lys)] (HELM PEPTIDE1{A.[meF].H.[dW].K.S}$PEPTIDE1,PEPTIDE1,1:R1-6:R2$$$V2.0)", "values": [{"measurement": "Potency Relative to Samatostatin (SRIF)", "setting": "[1]", "result": 200}]}
{"compound": "C[C@@H](O)[C@@H]1NC(=O)[C@H](CCCCN)NC(=O)[C@@H](Cc2c[nH]c3ccccc23)NC(=O)[C@H](Cc2ccccc2)NC(=O)[C@@H]2CCCN2C(=O)[C@H](Cc2ccccc2)NC1=O", "note": "[13/II, Cyclo-(Pro-Phe-D-Trp-Lys-Thr-Phe)] (HELM PEPTIDE1{P.F.[dW].K.T.F}$PEPTIDE1,PEPTIDE1,1:R1-6:R2$$$V2.0)", "values": [{"measurement": "Potency Relative to Samatostatin (SRIF)", "setting": "[1]", "result": 6}]}
{"compound": "CC(C)[C@@H]1NC(=O)[C@H](CCCCN)NC(=O)[C@@H](Cc2c[nH]c3ccccc23)NC(=O)[C@H](Cc2ccc(O)cc2)NC(=O)[C@H](C)N(C)C(=O)[C@H](Cc2ccccc2)NC1=O", "note": "[Compound 8 of Formula I, Cyclo-(N-Me-Ala-Tyr-D-Trp-Lys-Val-Phe)]", "values": [{"measurement": "Body Wt. Change", "setting": "[2]; 10 mcg./pellet", "result": "+43 gm"}, {"measurement": "Net weight of Pellets", "setting": "[2]; 10 mcg./pellet", "result": "39 ± 2.9", "unit": "mg"}, {"measurement": "Body Wt. Change", "setting": "[2]; 100 mcg./pellet", "result": "+40 gm"}, {"measurement": "Net weight of Pellets", "setting": "[2]; 100 mcg./pellet", "result": "30 ± 2.4", "unit": "mg"}, {"measurement": "anti-inflammatory activity (in words)", "setting": "[2]; administered locally, i.e., topically", "result": "clearly exhibits anti-inflammatory activity"}, {"measurement": "local anti-inflammatory activity (in words)", "setting": "[2]; doses of 100-200 micrograms per pellet", "result": "significant activity"}, {"measurement": "effect on adrenal weight (in words)", "setting": "[3]; administered subcutaneously", "result": "slight decrease in the adrenal weight"}, {"measurement": "anti-inflammatory activity (in words)", "setting": "[3]; administered subcutaneously at a total dose of 1.4 mg (0.2 mg×7)", "result": "no anti-inflammatory activity"}, {"measurement": "anti-inflammatory activity (in words)", "setting": "[3]; administered systematically, i.e., subcutaneously", "result": "no anti-inflammatory activity"}, {"measurement": "Avg. Granuloma wt.", "setting": "[3]; daily dose 50 mcg subcutaneous", "result": "27 ± 3", "unit": "mg"}, {"measurement": "Avg. Adrenal wt.", "setting": "[3]; daily dose 50 mcg subcutaneous", "result": "43 ± 2", "unit": "mg"}, {"measurement": "Avg. Thymus wt.", "setting": "[3]; daily dose 50 mcg subcutaneous", "result": "576 ± 14", "unit": "mg"}, {"measurement": "Avg. body wt change", "setting": "[3]; daily dose 50 mcg subcutaneous", "result": "+38 ± 3 gm"}, {"measurement": "Avg. Granuloma wt.", "setting": "[3]; [4]", "result": "29 ± 2", "unit": "mg"}, {"measurement": "Avg. Adrenal wt.", "setting": "[3]; [4]", "result": "36 ± 2", "unit": "mg"}, {"measurement": "Avg. Thymus wt.", "setting": "[3]; [4]", "result": "571 ± 26", "unit": "mg"}, {"measurement": "Avg. body wt change", "setting": "[3]; [4]", "result": "+35 ± 2 gm"}, {"measurement": "Potency Relative to Samatostatin (SRIF)", "setting": "[1]", "result": "50-100"}]}
{"compound": "C[C@]12CCC(=O)C=C1CC[C@@H]1[C@@H]2[C@@H](O)C[C@@]2(C)[C@H]1CC[C@]2(O)C(=O)CO", "note": "[Hydrocortisone, reference compound]", "values": [{"measurement": "Body Wt. Change", "setting": "[2]; 200 mcg./pellet", "result": "+44 gm"}, {"measurement": "Net weight of Pellets", "setting": "[2]; 200 mcg./pellet", "result": "34 ± 2.5", "unit": "mg"}, {"measurement": "Body Wt. Change", "setting": "[2]; 1000 mcg./pellet", "result": "+41 gm"}, {"measurement": "Net weight of Pellets", "setting": "[2]; 1000 mcg./pellet", "result": "29 ± 2.1", "unit": "mg"}, {"measurement": "activity of positive control (in words)", "setting": "[3]; administered subcutaneously", "result": "typical activity"}, {"measurement": "Avg. Granuloma wt.", "setting": "[3]; daily dose 1.0 mg subcutaneous", "result": "22 ± 1", "unit": "mg"}, {"measurement": "Avg. Adrenal wt.", "setting": "[3]; daily dose 1.0 mg subcutaneous", "result": "36 ± 3", "unit": "mg"}, {"measurement": "Avg. Thymus wt.", "setting": "[3]; daily dose 1.0 mg subcutaneous", "result": "201 ± 20", "unit": "mg"}, {"measurement": "Avg. body wt change", "setting": "[3]; daily dose 1.0 mg subcutaneous", "result": "+22 ± 3 gm"}, {"measurement": "Avg. Granuloma wt.", "setting": "[3]; daily dose 4.0 mg subcutaneous", "result": "19 ± 1", "unit": "mg"}, {"measurement": "Avg. Adrenal wt.", "setting": "[3]; daily dose 4.0 mg subcutaneous", "result": "23 ± 1", "unit": "mg"}, {"measurement": "Avg. Thymus wt.", "setting": "[3]; daily dose 4.0 mg subcutaneous", "result": "41 ± 3", "unit": "mg"}, {"measurement": "Avg. body wt change", "setting": "[3]; daily dose 4.0 mg subcutaneous", "result": "-17 ± 2", "unit": "gm"}]}
